From ChEMBL document CHEMBL1833972 (Bioorg Med Chem Lett, 2011)
≈ marks a conversion by molar mass, not a printed value.

Columns and labels:
[1] = Solubility of the compound; type: physicochemical
in vitro [2] = conditions: human, liver microsomes
[3] = Lipophilicity, log D of the compound; type: physicochemical; conditions: octanol/water
in vitro [4] = conditions: rat, liver microsomes
in vitro [5] = conditions: rat, cytosol
[6] = Thermodynamic solubility of compound at physiological pH; type: physicochemical; conditions: read-out: Therm_solubility

Row | Compound | solubility [1] | microsomal CLint (in vitro [2]) | logD [3] | microsomal CLint (in vitro [4]) | half-life (in vitro [5]) | solubility thermodynamic [6]
1 | Nc1nc(C(F)(F)F)cc2c1[nH]c(=O)n2Cc1ccnc(N2CCC[C@H]2CN2CCCC2)c1 | soluble | – | – | – | – | –
2 | Nc1nc(C(F)(F)F)cc2c1[nH]c(=O)n2Cc1ccc(NCc2ccccc2)nc1 | – | < 8 µL/min/mg | 1.8 | 16 µL/min/mg | 4.17 h | –
3 | COCCCN1CCN(c2ncccc2Cn2c(=O)[nH]c3c(N)nc(C(F)(F)F)cc32)CC1 | soluble | – | – | – | – | –
4 | CN1CCN(CC2CCCN2c2ccc(Cn3c(=O)[nH]c4c(N)nc(C(F)(F)F)cc43)cn2)CC1 (stereo unspecified) | soluble | – | – | – | – | –
5 | COCCN1CCN(c2cc(Cn3c(=O)[nH]c4c(N)nc(C(F)(F)F)cc43)ccn2)CC1 | soluble | – | – | – | – | –
6 | Nc1nc(C(F)(F)F)cc2c1[nH]c(=O)n2Cc1ccc(N2CCC[C@H]2CN2CCCC2)nc1 | soluble | – | – | – | – | –
7 | COCCN1CCN(c2ccc(Cn3c(=O)[nH]c4c(N)nc(C(F)(F)F)cc43)cn2)CC1 | soluble | 17 µL/min/mg | 2.3 | 9 µL/min/mg | – | –
8 | COCCCN1CCN(c2ccc(Cn3c(=O)[nH]c4c(N)nc(C(F)(F)F)cc43)cn2)CC1 | soluble | – | – | – | – | –
9 | Nc1nc(C(F)(F)F)cc2c1[nH]c(=O)n2Cc1cccnc1N1CCC[C@H]1CN1CCCC1 | soluble | – | – | – | – | –
10 | COCCN1CCN(c2ncccc2Cn2c(=O)[nH]c3c(N)nc(C(F)(F)F)cc32)CC1 | soluble | – | – | – | – | –
11 | Nc1nc(C(F)(F)F)cc2c1[nH]c(=O)n2Cc1ccc(NCCN2CCCCC2)nc1 | – | 13 µL/min/mg | 1.3 | 16 µL/min/mg | – | –
12 | COCCCN1CCN(c2cc(Cn3c(=O)[nH]c4c(N)nc(C(F)(F)F)cc43)ccn2)CC1 | soluble | – | – | – | – | –
13 | CN1CCN(CC2CCCN2c2cc(Cn3c(=O)[nH]c4c(N)nc(C(F)(F)F)cc43)ccn2)CC1 (stereo unspecified) | soluble | – | – | – | – | –
14 | Nc1nc(C(F)(F)F)cc2c1[nH]c(=O)n2Cc1cccnc1OCCN1CCCC1 | soluble | – | – | – | – | –
15 | Nc1nc(C(F)(F)F)cc2c1[nH]c(=O)n2Cc1ccnc(OCCN2CCCC2)c1 | soluble | – | – | – | – | –
16 | COCCNc1ncccc1Cn1c(=O)[nH]c2c(N)nc(C(F)(F)F)cc21 | soluble | – | – | – | – | –
17 | CN1CCN(CC2CCCN2c2ncccc2Cn2c(=O)[nH]c3c(N)nc(C(F)(F)F)cc32)CC1 (stereo unspecified) | soluble | – | – | – | – | –

Results, then the compound that gave them:

Row | solubility [1] | microsomal CLint (in vitro [2]) | logD [3] | microsomal CLint (in vitro [4]) | half-life (in vitro [5]) | solubility thermodynamic [6] | Compound
18 | soluble | 10 µL/min/mg | 1.2 | 9 µL/min/mg | – | – | Nc1nc(C(F)(F)F)cc2c1[nH]c(=O)n2Cc1ccc(OCCN2CCCC2)nc1
19 | soluble | – | – | – | – | – | COCCNc1cc(Cn2c(=O)[nH]c3c(N)nc(C(F)(F)F)cc32)ccn1
20 | – | 9 µL/min/mg | 0.7 | 16 µL/min/mg | 6.17 h | 483 µg/mL (≈ 1220 µM) | CN(C)CCNc1ccc(Cn2c(=O)[nH]c3c(N)nc(C(F)(F)F)cc32)cn1
21 | – | 25 µL/min/mg | 1.8 | 13 µL/min/mg | – | – | CN(CCN1CCCCC1)c1ccc(Cn2c(=O)[nH]c3c(N)nc(C(F)(F)F)cc32)cn1
22 | – | 25 µL/min/mg | 1.5 | 15 µL/min/mg | – | – | CN1CCN(CCN(C)c2ccc(Cn3c(=O)[nH]c4c(N)nc(C(F)(F)F)cc43)cn2)CC1
23 | soluble | – | – | – | – | – | COCCNc1ccc(Cn2c(=O)[nH]c3c(N)nc(C(F)(F)F)cc32)cn1
24 | – | 8.5 µL/min/mg | 0.8 | < 8.5 µL/min/mg | – | – | Nc1nc(C(F)(F)F)cc2c1[nH]c(=O)n2Cc1ccc(NCCN2CCCC2)nc1
25 | – | 22 µL/min/mg | 1.2 | 24 µL/min/mg | – | – | CN(C)CCOc1ccc(Cn2c(=O)[nH]c3c(N)nc(C(F)(F)F)cc32)cn1
26 | – | 24 µL/min/mg | 1.3 | 11 µL/min/mg | – | – | CCN(CC)CCN(C)c1ccc(Cn2c(=O)[nH]c3c(N)nc(C(F)(F)F)cc32)cn1
27 | – | < 8 µL/min/mg | 0.9 | < 8.5 µL/min/mg | – | – | CN(C)CCN1CCN(c2ccc(Cn3c(=O)[nH]c4c(N)nc(C(F)(F)F)cc43)cn2)CC1
28 | – | 16 µL/min/mg | 1.2 | 11 µL/min/mg | – | – | CN(C)CCN(C)c1ccc(Cn2c(=O)[nH]c3c(N)nc(C(F)(F)F)cc32)cn1
29 | – | < 8 µL/min/mg | 1.6 | < 8.5 µL/min/mg | 3.27 h | – | Nc1nc(C(F)(F)F)cc2c1[nH]c(=O)n2Cc1ccc(NCCO)nc1
